Measurements taken from the supplement of paper PMC10307832.

Assays:
Experiment in all cases: relative viability (nuclei count vs DMSO), 5 days (fraction); higher = more cells survive
[1] = compound: C1=CC=C2C(=C1)C=CC(=C2SSC3=C(C=CC4=CC=CC=C43)O)O [IPA-3] + O=C(CCCCCCC(=O)Nc1ccccc1)NO [Vorinostat] (partner 1 µM)
Procedure, shortened: (§1)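 Lung cancer cell lines in 1536-well plates were dosed by pin tool the day after seeding, either with one drug alone or with a fixed anchor-drug dose plus five library-drug doses (not always all listed) in √10 steps. After 5 days, cells were fixed and their nuclei stained in one step (final 0.05% Triton X-100, 1% formaldehyde, 1 ug/ml Hoechst), then counted on 4× images. Relative viability is the nuclei count in treated wells divided by that in vehicle wells. Values are medians of duplicate plates.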

[2] = compound: Cc1ccc(-n2nc(C(C)(C)C)cc2NC(=O)Nc2ccc(OCCN3CCOCC3)c3ccccc23)cc1 [Doramapimod] + COc1cccc2cc(-c3nc([C@H]4CC[C@H](C(=O)O)CC4)n4ncnc(N)c34)[nH]c12 [OSI-027] (partner 0.5 µM)
Procedure, shortened: as §1

[3] = compound: Cn1c(Nc2ccc(C(F)(F)F)cc2)nc2cc(Oc3ccnc(-c4ncc(C(F)(F)F)[nH]4)c3)ccc21 [RAF265] + COc1cc2c(Oc3ccc(NC(=O)C4(C(=O)Nc5ccc(F)cc5)CC4)cc3F)ccnc2cc1OCCCN1CCOCC1 [Foretinib] (partner 0.25 µM)
Procedure, shortened: as §1

[4] = compound: C1=CC=C2C(=C1)C=CC(=C2SSC3=C(C=CC4=CC=CC=C43)O)O [IPA-3] + N=C(N)NC(=N)NCCc1ccccc1 [Phenformin] (partner 250 µM)
Procedure, shortened: as §1

For UMC-11, the relative viability ([1]; first compound 0.2 µM) was 0.395, the relative viability ([1]; first compound 0.6325 µM) was 0.425 and the relative viability ([1]; first compound 2 µM) was 0.389. It also gave a relative viability ([1]; first compound 6.325 µM) of 0.394, a relative viability ([1]; first compound 20 µM) of 0.409 and a relative viability ([2]; first compound 0.02 µM) of 0.49. For the same cell line, the relative viability ([2]; first compound 0.06325 µM) was 0.385, the relative viability ([2]; first compound 0.2 µM) was 0.472 and the relative viability ([2]; first compound 0.6325 µM) was 0.438. For the same cell line, the relative viability ([2]; first compound 2 µM) was 0.444, the relative viability ([3]; first compound 0.01 µM) was 1.02 and the relative viability ([3]; first compound 0.03162 µM) was 1.05. It also gave a relative viability ([3]; first compound 0.1 µM) of 0.972, a relative viability ([3]; first compound 0.3162 µM) of 0.992 and a relative viability ([3]; first compound 1 µM) of 0.926. The relative viability ([4]; first compound 0.2 µM) was 0.391, the relative viability ([4]; first compound 0.6325 µM) was 0.336 and the relative viability ([4]; first compound 2 µM) was 0.316. For the same cell line, the relative viability ([4]; first compound 6.325 µM) was 0.341 and the relative viability ([4]; first compound 20 µM) was 0.357.
